The MIC is the smallest concentration in the dilution series that meets the test's criterion for growth inhibition.

Values after ≈ are worked out from the molar mass of the structure shown.

One assay concerns Streptococcus pyogenes. The assay is described as follows: In vitro minimum inhibitory concentration (MIC) vs. Strep. pyogenes. The conditions noted are these: Streptococcus pyogenes, read-out: MIC vs. Strep. pyogenes. Type of assay: cell-based. As for the experimental part: The antibacterial penam compounds of the instant invention show activity against a wide variety of gram-positive and gram-negative bacteria. […] The broth is inoculated with the bacterial culture, and with the test antibiotic, and then it is incubated overnight. On the next day, the test is read visually. The minimum inhibitory concentration (MIC) is the lowest concentration of antibiotic which prevents turbidity, i.e., which prevents growth of the microorganism. In vitro activities of several of the penam compounds of the invention are presented later in this specification.
In Table II, the minimum inhibitory concentrations (MIC's) of compounds of formula I, wherein R^2 is hydrogen, against a strain of Streptococcus pyogenes, are reported; and in Table III, minimum inhibitory concentrations of compounds of formula I, wherein R^2 is hydrogen, against a strain of Staphylococcus aureus, are presented. Because of the tautomeric nature of such tetrazole derivatives, referred to hereinbefore,each of the preparations tested also contains some of the corresponding compound of formula II, wherein R^3 is hydrogen.
Take `CC1(C)S[C@@H]2[C@H](NC(=O)[C@H](NC(=O)CCNC(=N)c3cc(Br)cc(Br)c3)c3ccccc3)C(=O)N2[C@H]1c1nnn[nH]1`: the MIC was under 0.1 µg/mL.

For `CC1(C)S[C@@H]2[C@H](NC(=O)C(C(=O)Oc3ccc4c(c3)CCC4)c3ccccc3)C(=O)N2[C@H]1c1nnn[nH]1` (stereo partly drawn) [2-(5-indanyloxycarbonyl)-2-phenylacetyl, 6-(2-[5-Indanyloxycarbonyl]-2-phenylacetamido)-2,2-dimethyl-3-(5-tetrazolyl)penam], the MIC is under 0.1 µg/mL.

In the case of `CC1(C)S[C@@H]2[C@H](NC(=O)[C@H](NC(=O)CCNC(=O)c3ccc(Cl)cc3)c3ccccc3)C(=O)N2[C@H]1c1nnn[nH]1`, the MIC is under 0.1 µg/mL.

As for `CNC(=N)NCC(=O)N[C@@H](C(=O)N[C@@H]1C(=O)N2[C@@H]1SC(C)(C)[C@@H]2c1nn[nH]n1)c1ccccc1`, the MIC is under 0.1 µg/mL.

`CC1(C)S[C@@H]2[C@H](NC(=O)[C@H](NC(=O)CNC(=O)c3ccc(Cl)cc3)c3ccccc3)C(=O)N2[C@H]1c1nnn[nH]1`: the MIC is 0.1 µg/mL (≈ 0.176 µM).

Take `CC1(C)S[C@@H]2[C@H](NC(=O)Cc3sccc3CN=[N+]=[N-])C(=O)N2[C@H]1c1nnn[nH]1` [2-(3-azidomethyl-2-thienyl-acetyl, 6-(2-[3-Azidomethyl-2-thienyl]acetamido)-2,2-dimethyl-3-(5-tetrazolyl)penam]: the MIC was at most 0.1 µg/mL.

As to `CCNC(=N)NC(=O)NCC(=O)N[C@@H](C(=O)N[C@@H]1C(=O)N2[C@@H]1SC(C)(C)[C@@H]2c1nn[nH]n1)c1ccccc1`, the MIC is under 0.1 µg/mL.

Consider `CC1(C)S[C@@H]2[C@H](NC(=O)[C@H](NC(=O)CNC(=O)Nc3ccccc3)c3ccccc3)C(=O)N2[C@H]1c1nnn[nH]1`, for which the MIC was under 0.1 µg/mL.

As for `CC1(C)S[C@@H]2[C@H](NC(=O)Cc3ccc(OCCN=[N+]=[N-])cc3)C(=O)N2[C@H]1c1nn[nH]n1` [2-(4-[2-azidoethoxy]phenyl)acetyl, 6-(2-[4-(2-Azidoethoxy)phenyl]acetamido)-2,2-dimethyl-3-(5-tetrazolyl)penam], the MIC was under 0.1 µg/mL.

As for `CC1(C)S[C@@H]2[C@H](NC(=O)[C@H](NC(=O)CCl)c3ccco3)C(=O)N2[C@H]1c1nn[nH]n1` [6-(D-2-[2-Chloroacetamido]-2-[2-furyl]acetamido)-2,2-dimethyl-3-(5-tetrazolyl)penam], the MIC was under 0.1 µg/mL.

Consider `CC1(C)S[C@@H]2[C@H](NC(=O)CNC(=N)c3ccncc3)C(=O)N2[C@H]1c1nnn[nH]1` [2-(4-pyridinecarboxamidino)acetyl], for which the MIC is under 0.1 µg/mL.

With `CC1(C)S[C@@H]2[C@H](NC(=O)[C@H](NC(=O)Cc3cccs3)c3ccccc3)C(=O)N2[C@H]1c1nnn[nH]1`, the MIC is 0.1 µg/mL (≈ 0.201 µM).

For `CCOC(=O)CC(=O)N[C@@H](C(=O)N[C@@H]1C(=O)N2[C@@H]1SC(C)(C)[C@@H]2c1nnn[nH]1)c1ccccc1`, the MIC was under 0.1 µg/mL.

Regarding `CC1(C)S[C@@H]2[C@H](NC(=O)[C@H](NC(=O)CNC(=N)c3cccc(S(N)(=O)=O)c3)c3ccccc3)C(=O)N2[C@H]1c1nnn[nH]1`, the MIC was under 0.1 µg/mL.

Turning to `CC1(C)S[C@@H]2[C@H](NC(=O)[C@H](NC(=O)Nc3ccc(Cl)cc3)c3ccc(O)cc3)C(=O)N2[C@H]1c1nnn[nH]1`, the MIC is under 0.1 µg/mL.

Consider `CC1(C)S[C@@H]2[C@H](NC(=O)Oc3ccccc3)C(=O)N2[C@H]1c1nnn[nH]1` [phenoxycarbonyl], for which the MIC is under 0.1 µg/mL.

Turning to `CC1(C)S[C@@H]2[C@H](NC(=O)[C@H](NC(=O)Cc3ccc(N)cc3)c3ccccc3)C(=O)N2[C@H]1c1nn[nH]n1` [6-(D-2-[2-(4-Aminophenyl)acetamido]-2-phenylacetamido)-2,2-dimethyl-3-(5-tetrazolyl)penam], the MIC is under 0.1 µg/mL.

Consider `CN(C)C=N[C@@H](C(=O)N[C@@H]1C(=O)N2[C@@H]1SC(C)(C)[C@@H]2c1nnn[nH]1)c1ccccc1` [6-(D-2-[Dimethylaminomethyleneamino]-2-phenylacetamido)-2,2-dimethyl-3-(5-tetrazolyl)penam], for which the MIC was under 0.1 µg/mL.

On to `CC1(C)S[C@@H]2[C@H](NC(=O)[C@H](NC(=O)CNC(=N)N)c3ccccc3)C(=O)N2[C@H]1c1nn[nH]n1`, for which the MIC was under 0.1 µg/mL.

`CC1(C)S[C@@H]2[C@H](NC(=O)[C@H](NC(=O)CSc3nc4ccccc4[nH]3)c3ccccc3)C(=O)N2[C@H]1c1nn[nH]n1`: the minimum inhibitory concentration (MIC) was under 0.1 µg/mL.

Regarding `CC1(C)S[C@@H]2[C@H](NC(=O)[C@H](NC(=O)CCNC(=O)c3cccc(Cl)c3)c3ccccc3)C(=O)N2[C@H]1c1nnn[nH]1`, the MIC was under 0.1 µg/mL.

Consider `CC1(C)S[C@@H]2[C@H](NC(=O)[C@H](NC(=O)CCNC(=O)Nc3ccccc3)c3ccccc3)C(=O)N2[C@H]1c1nnn[nH]1`, for which the MIC is under 0.1 µg/mL.

Staying with this assay, now noted: Streptococcus pyogenes; Examples; read-out: MIC against Strep. pyogenes.
With `CC(C)(C)C(=O)OCn1nnc([C@@H]2N3C(=O)[C@@H](NC(=O)[C@H](N)c4ccc(O)cc4)[C@H]3SC2(C)C)n1` [6-(D-2-Amino-2-[p-hydroxyphenyl]acetamido)-2,2-dimethyl-3-(2-[pivaloyloxymethyl]tetrazol-5-yl)penam], the MIC was determined as 0.39 µg/mL (≈ 0.774 µM).

The assay is the same for the next values; noted with them: Streptococcus pyogenes; Table II; two-fold serial dilution, Brain-Heart Infusion broth, overnight; read-out: MIC vs. Strep. pyogenes.
Turning to `CC1(C)S[C@@H]2[C@H](NC(=O)[C@H](NC(=O)CN=[N+]=[N-])c3ccccc3)C(=O)N2[C@H]1c1nnn[nH]1` [D-2-(2-azicoacetamido)-2-phenylacetyl], the MIC is 0.2 µg/mL (≈ 0.438 µM).

With `CC(=O)NC(=O)N[C@@H]1C(=O)N2[C@@H]1SC(C)(C)[C@@H]2c1nn[nH]n1` [N-acetylcarbomoyl], the MIC came out at 1.56 µg/mL (≈ 4.79 µM).

On to `CC1(C)S[C@@H]2[C@H](NC(=O)[C@H](NC(=O)NC(=O)CSC(=N)N)c3ccccc3)C(=O)N2[C@H]1c1nn[nH]n1` [6-(D-2-[3-(2-[Guanylthio]acetyl)ureido]-2-phenylacetamido)-2,2-dimethyl-3-(5-tetrazol-5-yl)penam], for which the MIC was found to be 0.004 µg/mL (≈ 0.00751 µM).

Take `CC1(C)S[C@@H]2[C@H](NC(=O)[C@H](NC(=S)NC(=O)c3ccccc3)c3ccccc3)C(=O)N2[C@H]1c1nn[nH]n1` [2-(3-benzoylthioureido)-2-phenylacetyl]: the MIC turned out to be 1.56 µg/mL (≈ 2.91 µM).

In the case of `CC1(C)S[C@@H]2[C@H](NC(=O)C(N)c3cccc([N+](=O)[O-])c3)C(=O)N2[C@H]1c1nnn[nH]1` (mixture of isomers) [DL-2-amino-2-(m-nitrophenyl)acetyl], the MIC turned out to be 0.004 µg/mL.

Take `CC1(C)S[C@@H]2[C@H](NC(=O)[C@H](NS(=O)(=O)c3cccs3)c3ccccc3)C(=O)N2[C@H]1c1nn[nH]n1`: the MIC was 0.39 µg/mL (≈ 0.751 µM).

Take `CC1(C)S[C@@H]2[C@H](NC(=O)[C@H](N)c3ccc(F)cc3)C(=O)N2[C@H]1c1nnn[nH]1` [D-2-amino-2-(p-fluorophenyl)acetyl, 6-(D-2-amino-2-[p-fluorophenyl]acetamido)-2,2-dimethyl-3-(5-tetrazolyl)penam]: the MIC amounted to 3.12 µg/mL (≈ 7.97 µM).

For the compound `COc1cccc(OC)c1C(=O)N[C@@H]1C(=O)N2[C@@H]1SC(C)(C)[C@@H]2c1nnn[nH]1` [2,6-dimethoxybenzoyl, 6-(2,6-dimethoxybenzamido)-2,2-dimethyl-3-(5-tetrazolyl)penam], the MIC amounted to 0.2 µg/mL (≈ 0.494 µM).

Turning to `CCNC(=S)NCCC(=O)N[C@@H](C(=O)N[C@@H]1C(=O)N2[C@@H]1SC(C)(C)[C@@H]2c1nnn[nH]1)c1ccccc1`, the MIC was 0.39 µg/mL (≈ 0.734 µM).

As to `CC1(C)S[C@@H]2[C@H](NC(=O)[C@H](NC(=O)CSCc3ccccc3)c3ccccc3)C(=O)N2[C@H]1c1nnn[nH]1`, the MIC was found to be 0.78 µg/mL (≈ 1.45 µM).

Take `Cc1onc(-c2ccccc2Cl)c1C(=O)N[C@@H]1C(=O)N2[C@@H]1SC(C)(C)[C@@H]2c1nnn[nH]1` [6-(3-[2-Chlorophenyl]-5-methyl-4-isoxazolecarboxamido)-2,2-dimethyl-3-(5-tetrazolyl)penam]: the MIC was under 0.1 µg/mL.

`COc1ccc(C(=N)NC(=O)NCC(=O)N[C@@H](C(=O)N[C@@H]2C(=O)N3[C@@H]2SC(C)(C)[C@@H]3c2nnn[nH]2)c2ccccc2)cc1`: the MIC came out at 1.56 µg/mL (≈ 2.57 µM).

As to `CC1(C)S[C@@H]2[C@H](NC(=O)[C@@H](N)c3ccc(O)cc3)C(=O)N2[C@H]1c1nnn[nH]1` [L-2-amino-2-(p-hydroxyphenyl)acetyl], the MIC is under 0.1 µg/mL.

Consider `CC1(C)S[C@@H]2[C@H](NC(=O)[C@H](NC(=O)CSC(=N)N)c3ccccc3)C(=O)N2[C@H]1c1nn[nH]n1`, for which the MIC came out at 0.004 µg/mL (≈ 0.00817 µM).

For the compound `CC1(C)S[C@@H]2[C@H](NC(=O)[C@H](NC(=O)CNC(=O)NC(=N)NCc3ccncc3)c3ccccc3)C(=O)N2[C@H]1c1nn[nH]n1`, the MIC was determined as 0.004 µg/mL (≈ 0.00659 µM).

Consider `CC1(C)S[C@@H]2[C@H](NC(=O)[C@H](NC(=O)CNC(=O)NC(=N)N)c3ccccc3)C(=O)N2[C@H]1c1nn[nH]n1`, for which the MIC amounted to 3.12 µg/mL (≈ 6.05 µM).

Take `CC1(C)S[C@@H]2[C@H](NC(=O)[C@H](NC(=O)CNC(=N)c3cc(Cl)cc(C#N)c3)c3ccccc3)C(=O)N2[C@H]1c1nnn[nH]1`: the MIC stood at 0.004 µg/mL (≈ 0.00674 µM).

Consider `CC1(C)S[C@@H]2[C@H](NC(=O)CSc3ccccc3CN)C(=O)N2[C@H]1c1nnn[nH]1` [2-(2-[aminomethyl]phenylthio)acetyl], for which the MIC was 1.56 µg/mL (≈ 3.72 µM).

With `CC1(C)S[C@@H]2[C@H](NC(=O)[C@H](NC(=O)Cc3ccc(Br)cc3)c3ccccc3)C(=O)N2[C@H]1c1nnn[nH]1`, the MIC amounted to 0.2 µg/mL (≈ 0.351 µM).

Turning to `CC1(C)S[C@@H]2[C@H](NC(=O)CSc3ccccc3)C(=O)N2[C@H]1c1nnn[nH]1` [2-(phenylthio)acetyl, 6-(2-[phenylthio]acetamido)-2,2-dimethyl-3-(5-tetrazolyl)penam], the MIC was determined as 0.78 µg/mL (≈ 2 µM).

The assay is the same for the next values; noted with them: Streptococcus pyogenes; Table IV; read-out: MIC vs. Strep. pyogenes.
Consider `CC1(C)S[C@@H]2[C@H](N3CN[C@H](c4ccc(O)cc4)C3=O)C(=O)N2[C@H]1c1nnn[nH]1` [6-(5-Oxo-4-[p-hydroxyphenyl]-1-imidazolidinyl)-2,2-dimethyl-3-(5-tetrazolyl)penam], for which the MIC stood at 6.25 µg/mL (≈ 15.6 µM).

`CC(C)(C)C(=O)OCn1nnc([C@@H]2N3C(=O)[C@@H](NC(=O)[C@H](N)c4ccc(O)cc4)[C@H]3SC2(C)C)n1` [6-(D-2-Amino-2-[p-hydroxyphenyl]acetamido)-2,2-dimethyl-3-(2-[pivaloyloxymethyl]tetrazol-5-yl)penam]: the MIC came to 0.39 µg/mL (≈ 0.774 µM).

The values are drawn from patent US4115385A, “Antibacterial 3-(5-tetrazolyl) penam compounds” (Pfizer Inc., priority 1977, dated 1978).
